Source: PMC11956005 (Journal of Medicinal Chemistry, 2025)
Where no end group is shown, it is not given here. [ ]: non-standard residue; d: D form. The star is where a group is joined. X1 = CCCCCCCCCCCCCCCC(=O)N[C@@H](CCC(=O)NCCCC[C@H](NC(=O)CCOCCOCCOCCOCCNC(=O)CNC(=O)CCN1C(=O)CC(*)C1=O)C(=O)NCCOCCOCCOCCOCCC(=O)N[C@@H](CCCCNC(=O)CC[C@H](NC(=O)CCCCCCCCCCCCCCCCC(=O)O)C(=O)O)C(=O)OC)C(=O)O; Aib = CC(C)(N)C(=O)O

What was measured:
[1] = native GLP-1; cited from earlier work
[2] = system: db/db mice; assay: Blood glucose control after a single subcutaneous dose in db/db mice; format: in vivo, mouse; conditions: single s.c. dose, 72 h postinjection

## CC[C@H](C)[C@H](NC(=O)[C@H](Cc1ccccc1)NC(=O)[C@H](CCC(=O)O)NC(=O)[C@H](CCCCN)NC(=O)[C@H](C)NC(=O)[C@H](C)NC(=O)[C@H](CCC(N)=O)NC(=O)CNC(=O)[C@H](CCC(=O)O)NC(=O)[C@H](CC(C)C)NC(=O)[C@H](Cc1ccc(O)cc1)NC(=O)[C@H](CO)NC(=O)[C@H](CO)NC(=O)[C@@H](NC(=O)[C@H](CC(=O)O)NC(=O)[C@H](CO)NC(=O)[C@@H](NC(=O)[C@H](Cc1ccccc1)NC(=O)[C@@H](NC(=O)CNC(=O)[C@H](CCC(=O)O)NC(=O)[C@H](C)NC(=O)[C@@H](N)Cc1c[nH]cn1)[C@@H](C)O)[C@@H](C)O)C(C)C)C(=O)N[C@@H](C)C(=O)N[C@@H](Cc1c[nH]c2ccccc12)C(=O)N[C@@H](CC(C)C)C(=O)N[C@H](C(=O)N[C@@H](CCCCN)C(=O)NCC(=O)N[C@@H](CCCN=C(N)N)C(=O)NCC(=O)O)C(C)C [GLP-1, glucagon-like peptide-1]
[1]
  intravenous half-life: 1.5 to 2 min

## H[Aib]EGTFTSDVSSYLEGQAAKEFIAWLVRGRGGGGSGGGGSGGGGSGC(X1) [TE-8131]
[2]
  blood sugar reduction (Δglucose from baseline): -8.2 ± 1.4 mmol/L
